The values below come from patent US12564622B2, “Preventing cytokine release syndrome” (priority 2017, dated 2026).

Several values for one entry are separate records, joined by “and”; a condition that tells them apart may be missing. Equal entries are not always repeated.

One data set has as its system LPS-injected BALB/c mice. In kind it is in vivo, mouse (BALB/c). The note with it: for mortality: LPS-treated mice, adrenoceptor blockers (α1, α2, β1, β2); for disease course (mortality, catecholamines, IL-6, TNF-α, MIP-2, KC) versus LPS only: catecholamine by subcutaneous osmotic pump plus sublethal dose of LPS. The procedure:
LPS from Escherichia coli 0111:B4 was formulated as a 10 mg/ml solution in water and stored in −80° C. LPS was injected intraperitoneally at a dose of 3.5 mg/kg. […] Human ANP (Sigma) was dissolved in saline, loaded in mini-osmotic pumps (ALZET) with a release rate of 12 μg/day and implanted subcutaneously in the back of mice 12 hours before the LPS injection. Mice implanted with pumps loaded with saline served as controls. […] […] The control groups were injected with PBS. […] Hydration of mice was supported by daily subcutaneous injection of 0.5 ml saline.
LPS from Escherichia coli 0111:B4 was formulated as a 10 mg/ml solution in water and stored in −80° C. In Balb/C mice, LPS was injected intraperitoneally at a lethal dose of 3.5 mg/kg. […] In experiments with catecholamine pumps, a sublethal dose with 15-35% death rate was optimized in Balb/C mice. In TH+/+ and TH^ΔLysM mice with C57BL/6 background, a lethal dose was optimized at 5 mg/kg. Human ANP (Sigma) was dissolved in saline, loaded in mini-osmotic pumps (ALZET) with a release rate of 12 μg/day and implanted subcutaneously in the back of mice 12 hours before the LPS injection. Mice implanted with pumps loaded with saline served as controls. Metyrosine was freshly dissolved in PBS and injected IP at the indicated doses for three days prior to the LPS treatment. One hour before the LPS injection, metyrosine was injected into the lower abdomen contralateral to the side of LPS injection. The control groups were injected with PBS. For the following 3 days, metyrosine was injected IP at reduced indicated doses. Hydration of mice was supported by daily subcutaneous injection of 0.5 ml saline.

The subject of data set [1] is co-culture of hCART19 and Raji cells. Kind of data set: In vitro co-culture of Raji and hCART19 cells. In kind it is cell-based, human. The note with it: co-culture stimulated with epinephrine 15 ng/ml; CHX 10 μg/ml. The source says:
Human CD19scFv-CD28-4-1BB-CD3ζ CAR-T cells (PM-CAR1003) were purchased from Promab Biotechnologies and maintained less than 7 days in AIM-V medium (GIBCO) supplemented with 300 IU/ml of hIL2 (Peprotech), 5% FBS and antibiotics (Car-T medium).

Data set [2] deals with polymicrobial peritoneal sepsis induced by CLP. Kind of data set: Cecal ligation and puncture (CLP) sepsis. In kind it is in vivo, mouse (C57BL/6). The note with it: antibiotic alone, from 20 hours after CLP. The method, then: (§1) Cecal ligation and puncture (CLP) was performed as described elsewhere (Rittirsch et al., 2009 Nature Protocols, 4:31-6). Briefly, six-to-eight week old female C57BL/6 mice were anesthetized and following abdominal incision, the cecum was ligated at about 14 the distance from the luminal entry to its tip. The ligated cecum was punctured through and through with a 22 G needle at ½ and ¾ the distance from the luminal entry to its tip. A small amount of the cecal content was gently pushed out of the four openings into the peritoneum. Subsequently, the abdominal muscles were sutured and the skin was closed with two staples. Five hundred microliters of saline were immediately injected subcutaneously to the mice. For the groups treated with antibiotics, imipenem (Sigma) was injected subcutaneously at 25 mg/kg starting from 20 hours after CLP, with a schedule of twice a day on day one and once a day thereafter for 10 days. Human ANP (Sigma) was dissolved in saline, loaded in mini-osmotic pumps (ALZET) with a release rate of 12 μg/day and implanted subcutaneously in the back of mice 12 hours before the CLP, with pumps loaded with saline serving as controls. Metyrosine was freshly dissolved in PBS and injected IP at 60 mg/kg/day for three days before the CLP. Twenty minutes before the CLP, metyrosine was injected at 60 mg/kg IP into the right side. The control groups were injected with PBS. For the following 4 days, metyrosine was injected at 30 mg/kg/day IP into the right side. Hydration of mice was supported by daily subcutaneous injection of 0.5 ml saline.
as §1, with “CLP” for “Cecal ligation and puncture (CLP)”, “(see, e.g., Rittirsch” for “(Rittirsch”, “2008 Rev Immunol 8:776-787).” for “2009 Nature Protocols, 4:31-6).”, “6-8 weeks” for “six-to-eight week”, “¼” for “14”, “days.” for “days. Human ANP (Sigma) was dissolved in saline, loaded in mini-osmotic pumps (ALZET) with a release rate of 12 μg/day and implanted subcutaneously in the back of mice 12 hours before the CLP, with pumps loaded with saline serving as controls.”

The conditions of data set [3]: incubation in media for 24 hours at 37° C.
Data set [4] concerns C. novyi-NT therapy-induced toxicity in mice bearing large subcutaneous CT26 tumors. Kind of data set: C. novyi-NT therapy of large subcutaneous CT26 tumors (therapy-induced toxicity). In kind it is in vivo, mouse (BALB/c). The note with it: CT26 tumor-bearing mice injected with parental C. novyi-NT spores, with the indicated agent. The method, then: ANP concentrations in the supernatant of ANP-C. novyi-NT culture and in mouse plasma were measured by an Elisa kit from Ray Biotech (EIAR-ANP-1) that recognizes both human and mouse ANP. ANP in the supernatant of ANP-C. novyi-NT culture were shown biological activities as described elsewhere (Lofton et al., 1990 Biochem. Biophys. Res. Comm., 172:793-9). Briefly, bacterial supernatants were applied to cultured bovine aortic endothelial cells (BAOEC, Cell Applications Inc.) for 3 minutes. cGMP concentrations were then measured in BAOEC lysates by the Direct cGMP Elisa Kit from Enzo following the manufacture's instruction.
The colon cancer cell line CT26 was injected subcutaneously into the right flank of six to eight week old female Balb/C mice as described elsewhere (Qiao et al., 2011 Oncotarget, 2:59-68). Tumor sizes were measured with a caliper and calculated as ½*L*W*H as described elsewhere (Tomayko et al., 1989 Can. Chemother. Pharmacol., 24:148-54). When tumors reached 600-900 mm^3 after about two weeks, 12×10^6 spores of C. novyi-NT or ANP-C. novyi-NT at 3×10^6/μl were injected intratumorally into 4 central parts of the tumor with a 32 G Hamilton syringe needle. The bacteria typical germinated in the tumors within 24 hours, turning them necrotic. Hydration of the mice was supported by daily subcutaneous injections of […] saline. Human ANP (Sigma) was dissolved in saline, loaded in mini-osmotic pumps (ALZET) with a release rate of 12 μg/day and implanted subcutaneously in the back of mice 12 hours before the spore injection. Pumps loaded with saline served as controls. Metyrosine was dissolved in PBS and injected IP at 60 mg/kg/day for three days before the C. novyi injection to deplete catecholamines in storage. Two hours after the spore injection, 60 mg/kg of metyrosine was injected intraperitoneally (IP). For each of the next three days, IP injections of metyrosine at 30 mg/kg were administered. Control groups were injected with PBS at the same time points.
Blood samples were collected into tubes containing 5 mM EDTA and 4 mM sodium metabisulfite after puncturing the facial vein or (terminally) by cardiac puncture. Subsequently, the samples were centrifuged and the plasmas were stored at −80° C. prior to analysis. Catecholamines (dopamine, norepinephrine and epinephrine) were measured using the 3-CAT Research ELISA kit from Labor Diagnostika Nord GmbH/Rocky Mountain Diagnostics. Cytokines were measured using Luminex assays based on Millipore Mouse and Human Cytokine/Chemokine panels.
ANP concentrations in the supernatant of ANP-C. novyi-642 NT culture and in mouse plasma were measured with an Elisa kit from Ray Biotech (EIAR-ANP-1) that recognizes both human and mouse ANP. […] Briefly, bacterial supernatants were applied to cultured bovine aortic endothelial cells (BAOEC, Cell Applications Inc.) for 3 minutes. cGMP concentrations were then measured in BAOEC lysates by the Direct cGMP Elisa Kit from Enzo following the manufacture's instruction.
The colon cancer cell line CT26 was injected subcutaneously into the right flank of six to eight weeks old female Balb/C mice as described elsewhere (see, e.g., Qiao et al. 2011 Oncotarget 2:59-68). Tumor sizes were measured with a caliper and calculated as ½*L*W*H as described elsewhere (see, e.g., Tomayko et al. 1989 Cancer Chemother Pharmacol 24:148-154). When tumors reached 600-900 mm^3 after about two weeks, 12×10^6 spores of C. novyi-NT or ANP-C. novyi-NT at 3×10^6/μl were injected intratumorally into 4 central parts of the tumor with a 32 G Hamilton syringe needle. The bacteria typical germinated in the tumors within 24 hours, turning them necrotic. Hydration of the mice was supported by daily subcutaneous injections of 500 μl saline. Human ANP (Sigma) was dissolved in saline, loaded in mini-osmotic pumps (ALZET) with a release rate of 12 μg/day and implanted subcutaneously in the back of mice 12 hours before the spore injection. Pumps loaded with saline served as controls. […]

Turning to `COC1(C2=NCCN2)COc2ccccc2O1` (stereo not shown) [RX 821002], in the data set with LPS-injected BALB/c mice, the mortality result is “did not reduce mortality”. On to `C[C@@H]1C[C@@H]([C@H](O)CC2CC(=O)NC(=O)C2)C(=O)[C@@H](C)C1` [CHX, Cycloheximide], for which the “increase of catecholamines and cytokines (TNF-α, MIP-1α, IFN-γ, GM-CSF)” value in data set [1] is reported as “greatly suppressed”. `Cc1ccc(OCC(O)C(C)NC(C)C)c2c1CCC2` (stereo not shown) [ICI 118551]: in the data set with LPS-injected BALB/c mice, the mortality entry is “did not reduce mortality”. On to `NCCc1ccc(O)c(O)c1` [dopamine], for which the “disease course (mortality, catecholamines, IL-6, TNF-α, MIP-2, KC) versus LPS only” value in the data set on LPS-injected BALB/c mice is “absent”. Turning to `C[C@@H](O)[C@H]1C(=O)N2C(C(=O)O)=C(SCCN=CN)C[C@H]12` [imipenem], the “mice that died after CLP” value in data set [2] was 88% and > 90%. With `CNC[C@H](O)c1ccc(O)c(O)c1` [epinephrine, (−)-epinephrine], the stability in media entry in data set [3] is “all detectable epinephrine was degraded”. Further, the “disease course (mortality, catecholamines, IL-6, TNF-α, MIP-2, KC) versus LPS only” value with LPS-injected BALB/c mice was “earlier onset and exacerbated disease course”. For the same molecule, in the data set with LPS-injected BALB/c mice (mouse, in vivo), the animal survival entry is “no effect on animal survival” and the cytokine release entry is on record as “moderately stimulate cytokine release”. Take `NC[C@H](O)c1ccc(O)c(O)c1` [norepinephrine]: the “disease course (mortality, catecholamines, IL-6, TNF-α, MIP-2, KC) versus LPS only” value in the data set on LPS-injected BALB/c mice is listed as “less pronounced”. For the molecule `Cc1ccc2nc(NCCN)c3ncc(C)n3c2c1` [BMS-345541], the results for the “effect on survival (words)” value in data set [4] and in data set [4] (listed as BMS345541) were “no significant improvement in survival” and “did not improve survival”, respectively. Consider `Cc1ncc([N+](=O)[O-])n1CCO` [metronidazole], for which the “effect on survival (words)” value in data set [4] was “did not protect animals from sepsis”. In the case of `COCCc1ccc(OCC(O)CNC(C)C)cc1` (stereo not shown) [metoprolol], in the data set with LPS-injected BALB/c mice, the mortality entry is listed as “did not reduce mortality”. Consider `COc1cc2nc(N3CCN(C(=O)c4ccco4)CC3)nc(N)c2cc1OC` [prazosin], for which the “production of catecholamines and cytokines” value with LPS-injected BALB/c mice (24 hours after LPS, α1 blockade) is “suppressed the production of catecholamines and cytokines”. Moreover, the mortality entry with LPS-injected BALB/c mice was “substantially reduced mortality”.
